Data published in the supplement of paper PMC10307832.

How the values were obtained:
Test in all cases: relative viability (nuclei count vs DMSO), 5 days (fraction); higher = more cells survive
[1] = compound: CC1=CC(=NN1)NC2=CC(=NC(=N2)/C=C/C3=CC=CC=C3)N4CCN(CC4)C + C[C@@H](Oc1cc(-c2cnn(C3CCNCC3)c2)cnc1N)c1c(Cl)ccc(F)c1Cl [Crizotinib] (partner 1 µM)
In short: (§1)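 Relative viability is defined as nuclei in treated wells over nuclei in vehicle wells. Duplicate plates were run and medians reported. Lung cancer cell lines in 1536-well plates were dosed by pin tool one day after seeding, with one drug or with a fixed anchor-drug dose plus five library-drug doses (not always all listed) in √10 steps, and nuclei were counted after 5 days.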

[2] = compound: CC1=CC(=NN1)NC2=CC(=NC(=N2)/C=C/C3=CC=CC=C3)N4CCN(CC4)C + CCNC(=O)c1noc(-c2cc(C(C)C)c(O)cc2O)c1-c1ccc(CN2CCOCC2)cc1 [Luminespib] (partner 0.01 µM)
In short: as §1

[3] = compound: CC1=CC(=NN1)NC2=CC(=NC(=N2)/C=C/C3=CC=CC=C3)N4CCN(CC4)C + CS(=O)(=O)CCNCc1ccc(-c2ccc3ncnc(Nc4ccc(OCc5cccc(F)c5)c(Cl)c4)c3c2)o1 [Lapatinib] (partner 2 µM)
In short: as §1

Cell Line: EMC-BAC-2
- relative viability ([1]; first compound 0.08 µM): 0.788
- relative viability ([1]; first compound 0.253 µM): 0.721
- relative viability ([1]; first compound 0.8 µM): 0.566
- relative viability ([1]; first compound 2.53 µM): 0.296
- relative viability ([1]; first compound 8 µM): 0.0972
- relative viability ([2]; first compound 0.08 µM): 1.2
- relative viability ([2]; first compound 0.253 µM): 1.21
- relative viability ([2]; first compound 0.8 µM): 1.15
- relative viability ([2]; first compound 2.53 µM): 0.733
- relative viability ([2]; first compound 8 µM): 0.271
- relative viability ([3]; first compound 0.08 µM): 0.905
- relative viability ([3]; first compound 0.253 µM): 0.923
- relative viability ([3]; first compound 0.8 µM): 0.811
- relative viability ([3]; first compound 2.53 µM): 0.689
- relative viability ([3]; first compound 8 µM): 0.136

Cell Line: EPLC-272H
- relative viability ([1]; first compound 0.08 µM): 0.884
- relative viability ([1]; first compound 0.253 µM): 1.06
- relative viability ([1]; first compound 0.8 µM): 0.711
- relative viability ([1]; first compound 2.53 µM): 0.452
- relative viability ([1]; first compound 8 µM): 0.174
- relative viability ([2]; first compound 0.08 µM): 0.456
- relative viability ([2]; first compound 0.253 µM): 0.458
- relative viability ([2]; first compound 0.8 µM): 0.149
- relative viability ([2]; first compound 2.53 µM): 0.11
- relative viability ([2]; first compound 8 µM): 0.0775
- relative viability ([3]; first compound 0.08 µM): 0.893
- relative viability ([3]; first compound 0.253 µM): 0.99
- relative viability ([3]; first compound 0.8 µM): 0.868
- relative viability ([3]; first compound 2.53 µM): 0.462
- relative viability ([3]; first compound 8 µM): 0.157

Cell Line: H3255
- relative viability ([1]; first compound 0.08 µM): 0.731
- relative viability ([1]; first compound 0.253 µM): 0.936
- relative viability ([1]; first compound 0.8 µM): 0.943
- relative viability ([1]; first compound 2.53 µM): 0.74
- relative viability ([1]; first compound 8 µM): 0.192
- relative viability ([2]; first compound 0.08 µM): 1.03
- relative viability ([2]; first compound 0.253 µM): 0.991
- relative viability ([2]; first compound 0.8 µM): 0.892
- relative viability ([2]; first compound 2.53 µM): 0.771
- relative viability ([2]; first compound 8 µM): 0.559
- relative viability ([3]; first compound 0.08 µM): 0.244
- relative viability ([3]; first compound 0.253 µM): 0.211
- relative viability ([3]; first compound 0.8 µM): 0.478
- relative viability ([3]; first compound 2.53 µM): 0.203
- relative viability ([3]; first compound 8 µM): 0.123

Cell Line: HARA
- relative viability ([1]; first compound 0.08 µM): 1.05
- relative viability ([1]; first compound 0.253 µM): 1.01
- relative viability ([1]; first compound 0.8 µM): 0.932
- relative viability ([1]; first compound 2.53 µM): 0.138
- relative viability ([1]; first compound 8 µM): 0.1
- relative viability ([2]; first compound 0.08 µM): 0.699
- relative viability ([2]; first compound 0.253 µM): 0.791
- relative viability ([2]; first compound 0.8 µM): 0.348
- relative viability ([2]; first compound 2.53 µM): 0.139
- relative viability ([2]; first compound 8 µM): 0.043
- relative viability ([3]; first compound 0.08 µM): 0.776
- relative viability ([3]; first compound 0.253 µM): 0.874
- relative viability ([3]; first compound 0.8 µM): 0.611
- relative viability ([3]; first compound 2.53 µM): 0.163
- relative viability ([3]; first compound 8 µM): 0.158

Cell Line: HCC-15
- relative viability ([1]; first compound 0.08 µM): 0.864
- relative viability ([1]; first compound 0.253 µM): 0.823
- relative viability ([1]; first compound 0.8 µM): 0.783
- relative viability ([1]; first compound 2.53 µM): 0.298
- relative viability ([1]; first compound 8 µM): 0.0811
- relative viability ([2]; first compound 0.08 µM): 0.497
- relative viability ([2]; first compound 0.253 µM): 0.349
- relative viability ([2]; first compound 0.8 µM): 0.444
- relative viability ([2]; first compound 2.53 µM): 0.237
- relative viability ([2]; first compound 8 µM): 0.108
- relative viability ([3]; first compound 0.08 µM): 0.867
- relative viability ([3]; first compound 0.253 µM): 0.856
- relative viability ([3]; first compound 0.8 µM): 0.835
- relative viability ([3]; first compound 2.53 µM): 0.319
- relative viability ([3]; first compound 8 µM): 0.167

Cell Line: HCC-44
- relative viability ([1]; first compound 0.08 µM): 0.756
- relative viability ([1]; first compound 0.253 µM): 0.837
- relative viability ([1]; first compound 0.8 µM): 0.787
- relative viability ([1]; first compound 2.53 µM): 0.386
- relative viability ([1]; first compound 8 µM): 0.0992
- relative viability ([2]; first compound 0.08 µM): 1.04
- relative viability ([2]; first compound 0.253 µM): 1.53
- relative viability ([2]; first compound 0.8 µM): 0.993
- relative viability ([2]; first compound 2.53 µM): 0.842
- relative viability ([2]; first compound 8 µM): 0.164
- relative viability ([3]; first compound 0.08 µM): 1.02
- relative viability ([3]; first compound 0.253 µM): 1.07
- relative viability ([3]; first compound 0.8 µM): 0.955
- relative viability ([3]; first compound 2.53 µM): 0.85
- relative viability ([3]; first compound 8 µM): 0.101

Cell Line: HCC-78
- relative viability ([1]; first compound 0.08 µM): 0.365
- relative viability ([1]; first compound 0.253 µM): 0.372
- relative viability ([1]; first compound 0.8 µM): 0.352
- relative viability ([1]; first compound 2.53 µM): 0.32
- relative viability ([1]; first compound 8 µM): 0.146
- relative viability ([3]; first compound 0.08 µM): 0.673
- relative viability ([3]; first compound 0.253 µM): 1.04
- relative viability ([3]; first compound 0.8 µM): 0.87
- relative viability ([3]; first compound 2.53 µM): 0.68
- relative viability ([3]; first compound 8 µM): 1.27

Cell Line: HCC-366
- relative viability ([1]; first compound 0.08 µM): 0.6
- relative viability ([1]; first compound 0.253 µM): 0.628
- relative viability ([1]; first compound 0.8 µM): 0.357
- relative viability ([1]; first compound 2.53 µM): 0.0171
- relative viability ([1]; first compound 8 µM): 0.01
- relative viability ([3]; first compound 0.08 µM): 0.928
- relative viability ([3]; first compound 0.253 µM): 1.13
- relative viability ([3]; first compound 0.8 µM): 0.996
- relative viability ([3]; first compound 2.53 µM): 0.0251
- relative viability ([3]; first compound 8 µM): 0.0162

Cell Line: HCC-827
- relative viability ([1]; first compound 0.08 µM): 0.91
- relative viability ([1]; first compound 0.253 µM): 0.999
- relative viability ([1]; first compound 0.8 µM): 0.877
- relative viability ([1]; first compound 2.53 µM): 0.636
- relative viability ([1]; first compound 8 µM): 0.381
- relative viability ([2]; first compound 0.08 µM): 0.577
- relative viability ([2]; first compound 0.253 µM): 0.673
- relative viability ([2]; first compound 0.8 µM): 0.587
- relative viability ([2]; first compound 2.53 µM): 0.441
- relative viability ([2]; first compound 8 µM): 0.236
- relative viability ([3]; first compound 0.08 µM): 0.201
- relative viability ([3]; first compound 0.253 µM): 0.168
- relative viability ([3]; first compound 0.8 µM): 0.212
- relative viability ([3]; first compound 2.53 µM): 0.146
- relative viability ([3]; first compound 8 µM): 0.124

Cell Line: HOP-62
- relative viability ([1]; first compound 0.08 µM): 0.985
- relative viability ([1]; first compound 0.253 µM): 0.963
- relative viability ([1]; first compound 0.8 µM): 0.979
- relative viability ([1]; first compound 2.53 µM): 0.706
- relative viability ([1]; first compound 8 µM): 0.229
- relative viability ([2]; first compound 0.08 µM): 0.953
- relative viability ([2]; first compound 0.253 µM): 0.966
- relative viability ([2]; first compound 0.8 µM): 0.888
- relative viability ([2]; first compound 2.53 µM): 0.849
- relative viability ([2]; first compound 8 µM): 0.35
- relative viability ([3]; first compound 0.08 µM): 1.06
- relative viability ([3]; first compound 0.253 µM): 0.973
- relative viability ([3]; first compound 0.8 µM): 0.956
- relative viability ([3]; first compound 2.53 µM): 0.558
- relative viability ([3]; first compound 8 µM): 0.307

Cell Line: IA-LM
- relative viability ([1]; first compound 0.253 µM): 0.899
- relative viability ([1]; first compound 0.8 µM): 0.884
- relative viability ([1]; first compound 2.53 µM): 0.38
- relative viability ([1]; first compound 8 µM): 0.0798
- relative viability ([3]; first compound 0.253 µM): 0.885
- relative viability ([3]; first compound 0.8 µM): 0.961
- relative viability ([3]; first compound 2.53 µM): 0.638
- relative viability ([3]; first compound 8 µM): 0.113

Cell Line: LC-2-ad
- relative viability ([1]; first compound 0.08 µM): 0.475
- relative viability ([1]; first compound 0.253 µM): 0.469
- relative viability ([1]; first compound 0.8 µM): 0.365
- relative viability ([1]; first compound 2.53 µM): 0.303
- relative viability ([1]; first compound 8 µM): 0.186
- relative viability ([2]; first compound 0.08 µM): 1.11
- relative viability ([2]; first compound 0.253 µM): 1.23
- relative viability ([2]; first compound 0.8 µM): 0.693
- relative viability ([2]; first compound 2.53 µM): 0.611
- relative viability ([2]; first compound 8 µM): 0.204
- relative viability ([3]; first compound 0.08 µM): 0.701
- relative viability ([3]; first compound 0.253 µM): 0.928
- relative viability ([3]; first compound 0.8 µM): 0.899
- relative viability ([3]; first compound 2.53 µM): 0.0949
- relative viability ([3]; first compound 8 µM): 0.0594
